Measured values as given in patent US9090651B2, “Helix 12 directed pharmaceutical products” (ENDORECHERCHE, INC., priority 2004, dated 2015).
Values joined by “and” are separate entries in the source; they are usually repeats but may differ in a detail not shown here. Equal entries are not always repeated. Where two headings read alike, the source gives them in different places.

What was measured:
[1] = system: Shionogi mouse mammary carcinoma cells; test: Androgenic/antiandrogenic activity on DHT-stimulated Shionogi cell growth; assay type: cell-based; settings: for Shionogi VS OH-FLU: ratio of Ki hydroxyflutamide versus tested compound
[2] = system: rat prostate; test: Systemic antiandrogenic activity, orchidectomized immature male rats with DHT implant: prostate weight; assay type: in vivo; settings: Rattus norvegicus, po, 168 h, 0.5 mg, per os; read-out: Prostate Rat Inh % inh (0.5 mg, per os)
Protocol: (§1) Immature male rats (Crl:CD(SD)Br) 22 to 24-day old were obtained from Charles-River, Inc. (St-Constant, Quebec, Canada) and housed up to 5 per cage in plastic bins in a temperature (23±1° C.)- and light (12 h light/day, lights on at 7 h15)-controlled environment. The rats were fed rodent chow and tap water ad libitum. The day following their arrival, the animals were orchidectomized (CX) under Isoflurane anesthesia via scrotal route and randomly assigned to groups of 5 animals.
(§2) Compounds were solubilized (when possible) in dimethylsulfoxide (DMSO, 10% final concentration) and administered as suspension in 0.4% methylcellulose. […] One group of animals received the antiandrogen Flutamide as reference. The animals were killed by cervical dislocation under isoflurane anesthesia on the 8th morning following castration. The ventral prostate and seminal vesicles were rapidly dissected and weighed.
(§3) W is the weight of the prostate or the seminal vesicle.

[3] = system: rat seminal vesicle; test: Systemic antiandrogenic activity, orchidectomized immature male rats with DHT implant: seminal vesicle weight; assay type: in vivo; settings: Rattus norvegicus, po, 168 h, 0.5 mg, per os; read-out: SV RAT Inh % inh (0.5 mg, per os)
Protocol: as §1, §2, §3

[4] = system: sebaceous glands of the left ear; test: Topical antiandrogenic activity, ear sebaceous glands model in the male hamster; assay type: in vivo; settings: Mesocricetus auratus, 336 h, topical on left pinna, read-out: Antiandrogenic activity in Hamster Ear Area Inh Vs Cx (%); for inhibition in vivo at 0.1 mg: 100 μg daily for 14 days; for inhibition in vivo at 0.01 mg: 10 μg daily for 14 days
Protocol: The antiandrogenic activity of compounds for topical use was determined using the ear sebaceous glands model in the male hamster.
Male Golden Syrian Hamsters (SYR) of 110-120 g were obtained from Harlan Sprague-Dawley (Madison, USA) and housed up to 2 per plastic cage in a temperature (22±3° C.) and light (12 h light/day, lights on at 7 h15)-controlled environment. The hamsters were fed with Certified Rodent Diet 5002 (pellet) and had access to tap water ad libitum. The animals were acclimatized for at least five days prior to beginning the study. Animals were randomly assigned to groups of eight hamsters. One group of hamsters were castrated under isoflurane-induced anesthesia on the day of dosing initiation (SD 1) and used as control group.
To evaluate the antiandrogenic activity, the tested compounds were applied topically on the inner part of the left ear, once daily, for 14 days. […] For animals of the castrated and intact control groups, one ten-μL vehicle was applied onto the left ear. No solution was applied on the right ear.
On Study Day 15, the hamsters were euthanized by cervical dislocation under isoflurane anesthesia. The left and right ears were collected attached together by the head skin, flat fixed on a paper and then immersed in 10% neutral buffered formalin. Punctures making a circular hole of 6 mm were made on the flat fixed ear in the region where the solution has been applied. These punch-made specimens were collected from each ear. Using a scalpel blade, the collected 6 mm round ear specimens were cut in the middle between the two cartilage ridges. The two equal parts of the ear round specimens were embedded in paraffin. After processing the tissue, the two parts were vertically embedded parallel to each other in such a way that the flat 6 mm area was facing out. From each paraffin block, one section (5 μm thick) was cut and collected on a glass slide. Thus, each slide contained two elongated sections of 6 mm length. Slides were stained with hematoxylin and eosin.
Using the video camera and the lens number X5 of the light microscope, the resulting field appearing on the screen has a length of 0.953 mm. When the first 6 mm long section was examined from the left to the right, the first and second fields were ignored and the third and fourth fields were captured for analysis by the image analyzer. Each field has the length of 0.953 mm. With the help of the screen mouse, the sebaceous glands within the whole field length (0.953 mm) were marked. Also, an area having the length of the whole field and the height between stratum granulosum and the upper edge of the cartilage was drawn.
The total area of the sebaceous glands (μm^2) in each examined field was calculated by the Image Analyser. We also measured the total area, which has the length of 0.953 mm and the height between stratum granulosum and the cartilage. In addition, the percentage of the area occupied by the glands was obtained. Thus, for each ear, two sections were cut and two fields from each section were analyzed. The total of the four readings was averaged and the mean standard error of the mean was calculated by the image analyzer. The results were expressed in μm^2 as the total surface of glands per field and also as percentage of the area occupied by the glands in the tissue.

[5] = target: T1, Human Androgen Receptor (Homo sapiens, UniProt P10275); test: Androgen receptor binding assay (hydroxylapatite, [3H]R1881, cytosol of transfected HEK-293 cells); settings: for Androgen Receptor Binding (%) Human RBA R1881 = 100: % RBA=100×IC50 R1881/IC50 compound, transfected cells; for RBA human: Table 4, relative to R1881
T1 sequence (P10275 1-920): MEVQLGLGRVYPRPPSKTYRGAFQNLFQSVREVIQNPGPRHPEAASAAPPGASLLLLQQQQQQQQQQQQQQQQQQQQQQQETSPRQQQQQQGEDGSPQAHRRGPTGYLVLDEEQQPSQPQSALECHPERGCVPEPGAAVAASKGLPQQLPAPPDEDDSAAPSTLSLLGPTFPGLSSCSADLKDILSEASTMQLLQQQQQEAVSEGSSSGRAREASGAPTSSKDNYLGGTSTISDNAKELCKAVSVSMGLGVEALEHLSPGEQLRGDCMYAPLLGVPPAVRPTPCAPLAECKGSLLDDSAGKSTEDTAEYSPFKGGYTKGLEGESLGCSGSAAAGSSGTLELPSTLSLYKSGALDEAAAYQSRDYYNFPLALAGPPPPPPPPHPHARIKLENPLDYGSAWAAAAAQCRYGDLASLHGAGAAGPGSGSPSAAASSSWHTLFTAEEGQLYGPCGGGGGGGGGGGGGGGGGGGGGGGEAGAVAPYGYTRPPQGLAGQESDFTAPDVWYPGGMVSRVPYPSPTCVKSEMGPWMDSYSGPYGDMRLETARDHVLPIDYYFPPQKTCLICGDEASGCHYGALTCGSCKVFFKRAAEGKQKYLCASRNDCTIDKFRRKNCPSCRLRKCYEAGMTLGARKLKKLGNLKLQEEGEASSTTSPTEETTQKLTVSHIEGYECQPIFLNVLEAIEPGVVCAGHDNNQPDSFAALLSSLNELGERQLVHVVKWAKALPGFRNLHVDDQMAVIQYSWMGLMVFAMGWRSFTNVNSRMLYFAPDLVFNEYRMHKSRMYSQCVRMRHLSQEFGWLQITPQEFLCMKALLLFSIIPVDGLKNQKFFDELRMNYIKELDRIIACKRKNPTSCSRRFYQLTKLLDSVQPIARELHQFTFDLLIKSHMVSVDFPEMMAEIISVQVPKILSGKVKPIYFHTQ

[6] = Mus musculus, read-out: Shionogi Antiandrogenic activity IC50 (nM), inhibition of DHT-stimulated Shionogi cell number
[7] = Mus musculus, read-out: Shionogi IC50 (nM), Table 4, inhibition of DHT-stimulated Shionogi cell number

For `CCC[C@H](NC(CC)CC)c1cccc(OCC[C@]23CCC4C(CCC5CC(=O)CC[C@@]54C)C2CC[C@@H]3O)c1` (stereo in doubt) [EM-6445], the IC50 [1, 6] was 0.2 nM, the IC50 [1, 7] was 0.2 nM and the “Shionogi VS OH-FLU” value ([1]; Table 4) was 231. For the same molecule, the inhibition in vivo at 0.5 mg [2] was 3%, the inhibition in vivo at 0.5 mg [3] was 0% and the inhibition in vivo at 0.1 mg [4] was 96%. The “Androgen Receptor Binding (%) Human RBA R1881 = 100” value [5] was 168% and the RBA human [5] was 336%.
Molecule `CCC(CC)NC(CC)c1cccc(OCC[C@]23CCC4C(CCC5CC(=O)CC[C@@]54C)C2CC[C@@H]3O)c1` (stereo partly shown) [EM-6339] has an IC50 [1, 6] of 2.3 nM, an IC50 [1, 7] of 2.3 nM and an IC50 ([1]; read-out: Shionogi Antiandrogenic activity IC50, inhibition of DHT-stimulated Shionogi cell number) of 3 nM. For the same molecule, the IC50 ([1]; read-out: Shionogi IC50, Table 4, inhibition of DHT-stimulated Shionogi cell number) was 3 nM, the inhibition in vivo at 0.01 mg [4] was 55% and the inhibition in vivo at 0.1 mg [4] was 67%. For the same molecule, the “Androgen Receptor Binding (%) Human RBA R1881 = 100” value [5] was 240% and 236% and the RBA human [5] was 236%.
With `CCN(C1CCCCC1)[C@H](C)c1cccc(OCC[C@]23CCC4C(CCC5CC(=O)CC[C@@]54C)C2CC[C@@H]3O)c1` (stereo partly shown) [EM-6414] the IC50 [1, 6] was 4 nM, the IC50 [1, 7] was 4 nM and the “Shionogi VS OH-FLU” value ([1]; Table 4) was 1. For the same molecule, the inhibition in vivo at 0.5 mg [2] was 6%, the inhibition in vivo at 0.5 mg [3] was 28% and the inhibition in vivo at 0.01 mg [4] was 55%. For the same molecule, the inhibition in vivo at 0.1 mg [4] was 64%, the “Androgen Receptor Binding (%) Human RBA R1881 = 100” value [5] was 121% and the RBA human [5] was 71%.
`CC[C@H](NC1CCCCC1)c1cccc(OCC[C@]23CCC4C(CCC5CC(=O)CC[C@@]54C)C2CC[C@@H]3O)c1` (stereo partly shown) [EM-6415] was tested, and the IC50 [1, 6] was 0.47 nM, the IC50 [1, 7] was 1.4 nM and the “Shionogi VS OH-FLU” value ([1]; Table 4) was 29. The inhibition in vivo at 0.5 mg [2] was 14%, the inhibition in vivo at 0.5 mg [3] was 0% and the inhibition in vivo at 0.01 mg [4] was 52%. The inhibition in vivo at 0.1 mg [4] was 84%, the “Androgen Receptor Binding (%) Human RBA R1881 = 100” value [5] was 230% and the RBA human [5] was 185%.
With `CCC(CC)NC(c1cccc(OCC[C@]23CCC4C(CCC5CC(=O)CC[C@@]54C)C2CC[C@@H]3O)c1)C(C)C` (stereo partly shown) [EM-6446] the IC50 [1, 7] was 1 nM, the “Shionogi VS OH-FLU” value ([1]; Table 4) was 51 and the inhibition in vivo at 0.5 mg [2] was 11%. For the same molecule, the inhibition in vivo at 0.5 mg [3] was 3%, the inhibition in vivo at 0.01 mg [4] was 56% and the inhibition in vivo at 0.1 mg [4] was 79%. The RBA human [5] was 715%.
`CC(C)CN1CCCCC1c1cccc(OCC[C@]23CCC4C(CCC5CC(=O)CC[C@@]54C)C2CC[C@@H]3O)c1` (stereo partly shown) [EM-6493] was tested, and the IC50 [1, 6] was 4.3 nM, the IC50 [1, 7] was 3.6 nM and the “Shionogi VS OH-FLU” value ([1]; Table 4) was 16. It also gave an inhibition in vivo at 0.5 mg [2] of 15%, an inhibition in vivo at 0.5 mg [3] of 19% and an inhibition in vivo at 0.01 mg [4] of 44%. The inhibition in vivo at 0.1 mg [4] was 63%, the “Androgen Receptor Binding (%) Human RBA R1881 = 100” value [5] was 92% and 173% and the RBA human [5] was 173%.
In the case of `CCCCCN1CCCCC1c1cccc(OCC[C@]23CCC4C(CCC5CC(=O)CC[C@@]54C)C2CC[C@@H]3O)c1` (stereo partly shown) [EM-6494], the IC50 [1, 6] is reported as 10.5 nM, the IC50 [1, 7] is reported as 10.5 nM and the “Shionogi VS OH-FLU” value ([1]; Table 4) is reported as 5.4. It also gave an inhibition in vivo at 0.5 mg [2] of 0%, an inhibition in vivo at 0.5 mg [3] of 1% and an inhibition in vivo at 0.1 mg [4] of 68%. For the same molecule, the “Androgen Receptor Binding (%) Human RBA R1881 = 100” value [5] was 63% and 97% and the RBA human [5] was 97%.
